{"source": "patent US20180325914A1", "about": "“INCREASING STORAGE OF VITAMIN A, VITAMIN D AND/OR LIPIDS” (Salk Institute for Biological Studies, priority 2014, published 2018)", "system": "primary HSCs", "key": {"[1]": {"details": "mRNA-Seq expression, primary HSCs, day 6 with JQ1"}}}
{"compound": "Cc1sc2c(c1C)C(c1ccc(Cl)cc1)=N[C@@H](CC(=O)OC(C)(C)C)c1nnc(C)n1-2", "note": "[JQ1, (S)-tert-butyl 2-(4-(4-chlorophenyl)-2,3,9-trimethyl-6H-thieno[3,2-f][1,2,4]triazolo[4,3-a][1,4]diazepin-6-yl)acetate]", "values": [{"measurement": "Elfn1 value_2 (Day_6_JQ1)", "setting": "[1]", "value": 0.4141}, {"measurement": "Eln value_2 (Day_6_JQ1)", "setting": "[1]", "value": 0.6077}, {"measurement": "Esrp2 value_2 (Day_6_JQ1)", "setting": "[1]", "value": 0.7459}, {"measurement": "Etv4 value_2 (Day_6_JQ1)", "setting": "[1]", "value": 1.116}, {"measurement": "F3 value_2 (Day_6_JQ1)", "setting": "[1]", "value": 32.9312}, {"measurement": "Fam132b value_2 (Day_6_JQ1)", "setting": "[1]", "value": 0.6136}, {"measurement": "Fam198b value_2 (Day_6_JQ1)", "setting": "[1]", "value": 1.907}, {"measurement": "Fblim1 value_2 (Day_6_JQ1)", "setting": "[1]", "value": 12.2302}, {"measurement": "Fibin value_2 (Day_6_JQ1)", "setting": "[1]", "value": 1.847}, {"measurement": "Fkbp10 value_2 (Day_6_JQ1)", "setting": "[1]", "value": 27.4534}, {"measurement": "Fkbp11 value_2 (Day_6_JQ1)", "setting": "[1]", "value": 6.955}, {"measurement": "Fst value_2 (Day_6_JQ1)", "setting": "[1]", "value": 3.079}, {"measurement": "Fxyd6 value_2 (Day_6_JQ1)", "setting": "[1]", "value": 0.9921}, {"measurement": "Gbx2 value_2 (Day_6_JQ1)", "setting": "[1]", "value": 0.4331}, {"measurement": "Gjb3 value_2 (Day_6_JQ1)", "setting": "[1]", "value": 0.08229}, {"measurement": "Gjb5 value_2 (Day_6_JQ1)", "setting": "[1]", "value": 0.1388}, {"measurement": "Gm12824 value_2 (Day_6_JQ1)", "setting": "[1]", "value": 0.8107}, {"measurement": "Gpr176 value_2 (Day_6_JQ1)", "setting": "[1]", "value": 5.413}, {"measurement": "Has2 value_2 (Day_6_JQ1)", "setting": "[1]", "value": 1.812}, {"measurement": "Hebp2 value_2 (Day_6_JQ1)", "setting": "[1]", "value": 0.7684}, {"measurement": "Hhipl1 value_2 (Day_6_JQ1)", "setting": "[1]", "value": 0.517}, {"measurement": "Hsd11b1 value_2 (Day_6_JQ1)", "setting": "[1]", "value": 3.839}, {"measurement": "Hspb2 value_2 (Day_6_JQ1)", "setting": "[1]", "value": 6.826}, {"measurement": "Hspb7 value_2 (Day_6_JQ1)", "setting": "[1]", "value": 0.2986}, {"measurement": "Htra3 value_2 (Day_6_JQ1)", "setting": "[1]", "value": 1.896}, {"measurement": "Ivl value_2 (Day_6_JQ1)", "setting": "[1]", "value": 0.5056}, {"measurement": "Jph2 value_2 (Day_6_JQ1)", "setting": "[1]", "value": 3.451}, {"measurement": "Kcnmb1 value_2 (Day_6_JQ1)", "setting": "[1]", "value": 0.01726}, {"measurement": "Kctd15 value_2 (Day_6_JQ1)", "setting": "[1]", "value": 1.124}, {"measurement": "Lmod1 value_2 (Day_6_JQ1)", "setting": "[1]", "value": 5.533}, {"measurement": "Lox14 value_2 (Day_6_JQ1)", "setting": "[1]", "value": 6.181}, {"measurement": "Lox value_2 (Day_6_JQ1)", "setting": "[1]", "value": 102.497}, {"measurement": "Ltbp1 value_2 (Day_6_JQ1)", "setting": "[1]", "value": 3.833}, {"measurement": "Ltbp2 value_2 (Day_6_JQ1)", "setting": "[1]", "value": 4.7344}, {"measurement": "Mfap4 value_2 (Day_6_JQ1)", "setting": "[1]", "value": 0.2994}, {"measurement": "Mfap5 value_2 (Day_6_JQ1)", "setting": "[1]", "value": 1.011}, {"measurement": "Mgp value_2 (Day_6_JQ1)", "setting": "[1]", "value": 22.5571}, {"measurement": "Mmp23 value_2 (Day_6_JQ1)", "setting": "[1]", "value": 6.014}, {"measurement": "Mrap value_2 (Day_6_JQ1)", "setting": "[1]", "value": 0.2549}, {"measurement": "Mrgprf value_2 (Day_6_JQ1)", "setting": "[1]", "value": 1.3677}, {"measurement": "Myl9 value_2 (Day_6_JQ1)", "setting": "[1]", "value": 142.669}, {"measurement": "Naalad2 value_2 (Day_6_JQ1)", "setting": "[1]", "value": 0.9739}, {"measurement": "Nfatc4 value_2 (Day_6_JQ1)", "setting": "[1]", "value": 2.235}, {"measurement": "Npr3 value_2 (Day_6_JQ1)", "setting": "[1]", "value": 8.408}, {"measurement": "Olfm2 value_2 (Day_6_JQ1)", "setting": "[1]", "value": 0.8372}, {"measurement": "P2ry14 value_2 (Day_6_JQ1)", "setting": "[1]", "value": 6.946}, {"measurement": "P4ha3 value_2 (Day_6_JQ1)", "setting": "[1]", "value": 1.335}, {"measurement": "Pappa value_2 (Day_6_JQ1)", "setting": "[1]", "value": 0.6606}, {"measurement": "Pdgfc value_2 (Day_6_JQ1)", "setting": "[1]", "value": 1.527}, {"measurement": "Pdgfrl value_2 (Day_6_JQ1)", "setting": "[1]", "value": 0.4741}, {"measurement": "Pdlim3 value_2 (Day_6_JQ1)", "setting": "[1]", "value": 0.5953}, {"measurement": "Pla1a value_2 (Day_6_JQ1)", "setting": "[1]", "value": 2.047}, {"measurement": "Postn value_2 (Day_6_JQ1)", "setting": "[1]", "value": 58.0905}, {"measurement": "Prelid2 value_2 (Day_6_JQ1)", "setting": "[1]", "value": 1.71}, {"measurement": "Prkar1b value_2 (Day_6_JQ1)", "setting": "[1]", "value": 1.1011}, {"measurement": "Pstpip1 value_2 (Day_6_JQ1)", "setting": "[1]", "value": 0.2607}, {"measurement": "Ptgs2 value_2 (Day_6_JQ1)", "setting": "[1]", "value": 2.221}, {"measurement": "Ptprn value_2 (Day_6_JQ1)", "setting": "[1]", "value": 5.204}, {"measurement": "Rap1gap2 value_2 (Day_6_JQ1)", "setting": "[1]", "value": 2.58}, {"measurement": "Rasl12 value_2 (Day_6_JQ1)", "setting": "[1]", "value": 0.3063}, {"measurement": "Rgs4 value_2 (Day_6_JQ1)", "setting": "[1]", "value": 2.345}, {"measurement": "Saa3 value_2 (Day_6_JQ1)", "setting": "[1]", "value": 10.7546}, {"measurement": "Serpinb9b value_2 (Day_6_JQ1)", "setting": "[1]", "value": 4.136}, {"measurement": "Serpinf1 value_2 (Day_6_JQ1)", "setting": "[1]", "value": 66.5572}, {"measurement": "Sertad4 value_2 (Day_6_JQ1)", "setting": "[1]", "value": 0.6904}, {"measurement": "Slc16a3 value_2 (Day_6_JQ1)", "setting": "[1]", "value": 10.7025}, {"measurement": "Sorcs2 value_2 (Day_6_JQ1)", "setting": "[1]", "value": 0.1588}, {"measurement": "Spon2 value_2 (Day_6_JQ1)", "setting": "[1]", "value": 12.3682}, {"measurement": "Srpx2 value_2 (Day_6_JQ1)", "setting": "[1]", "value": 2.998}, {"measurement": "Stra6 value_2 (Day_6_JQ1)", "setting": "[1]", "value": 0.07484}, {"measurement": "Syt13 value_2 (Day_6_JQ1)", "setting": "[1]", "value": 6.257}, {"measurement": "Tfpi2 value_2 (Day_6_JQ1)", "setting": "[1]", "value": 4.486}, {"measurement": "Thy1 value_2 (Day_6_JQ1)", "setting": "[1]", "value": 2.222}, {"measurement": "Tll1 value_2 (Day_6_JQ1)", "setting": "[1]", "value": 0.3916}, {"measurement": "Tmeff1 value_2 (Day_6_JQ1)", "setting": "[1]", "value": 5.181}, {"measurement": "Tmem200a value_2 (Day_6_JQ1)", "setting": "[1]", "value": 0.3192}, {"measurement": "Tnfsf8 value_2 (Day_6_JQ1)", "setting": "[1]", "value": 0.1581}, {"measurement": "Tnfsf13b value_2 (Day_6_JQ1)", "setting": "[1]", "value": 1.119}, {"measurement": "Tnfsf15 value_2 (Day_6_JQ1)", "setting": "[1]", "value": 0.07599}, {"measurement": "Tnfsf18 value_2 (Day_6_JQ1)", "setting": "[1]", "value": 0.24}, {"measurement": "Trpc6 value_2 (Day_6_JQ1)", "setting": "[1]", "value": 0.05189}, {"measurement": "Wbscr17 value_2 (Day_6_JQ1)", "setting": "[1]", "value": 0.7256}, {"measurement": "Wisp1 value_2 (Day_6_JQ1)", "setting": "[1]", "value": 4.262}, {"measurement": "Wisp2 value_2 (Day_6_JQ1)", "setting": "[1]", "value": 1.369}, {"measurement": "Wnt11 value_2 (Day_6_JQ1)", "setting": "[1]", "value": 1.299}, {"measurement": "Zfp827 value_2 (Day_6_JQ1)", "setting": "[1]", "value": 0.4625}, {"measurement": "1110003E01Rik value_2", "setting": "mRNA-Seq, sample Day_6_JQ1", "value": 69.1288}, {"measurement": "1600014C10Rik value_2", "setting": "mRNA-Seq, sample Day_6_JQ1", "value": 21.437}, {"measurement": "2310022B05Rik value_2", "setting": "mRNA-Seq, sample Day_6_JQ1", "value": 132.474}, {"measurement": "Adam15 value_2", "setting": "mRNA-Seq, sample Day_6_JQ1", "value": 78.5951}, {"measurement": "Afap1l2 value_2", "setting": "mRNA-Seq, sample Day_6_JQ1", "value": 58.9193}, {"measurement": "Ahdc1 value_2", "setting": "mRNA-Seq, sample Day_6_JQ1", "value": 13.24}, {"measurement": "Apln value_2", "setting": "mRNA-Seq, sample Day_6_JQ1", "value": 16.0329}, {"measurement": "Arhgap11a value_2", "setting": "mRNA-Seq, sample Day_6_JQ1", "value": 12.9839}, {"measurement": "Arhgef17 value_2", "setting": "mRNA-Seq, sample Day_6_JQ1", "value": 35.1441}, {"measurement": "Aurkb value_2", "setting": "mRNA-Seq, sample Day_6_JQ1", "value": 18.2306}, {"measurement": "BC018242 value_2", "setting": "mRNA-Seq, sample Day_6_JQ1", "value": 17.3751}, {"measurement": "BC031353 value_2", "setting": "mRNA-Seq, sample Day_6_JQ1", "value": 10.0028}, {"measurement": "BC046404 value_2", "setting": "mRNA-Seq, sample Day_6_JQ1", "value": 27.3155}, {"measurement": "Bambi value_2", "setting": "mRNA-Seq, sample Day_6_JQ1", "value": 20.2742}, {"measurement": "Basp1 value_2", "setting": "mRNA-Seq, sample Day_6_JQ1", "value": 173.108}, {"measurement": "Bicc1 value_2", "setting": "mRNA-Seq, sample Day_6_JQ1", "value": 86.5801}, {"measurement": "Bphl value_2", "setting": "mRNA-Seq, sample Day_6_JQ1", "value": 18.4476}, {"measurement": "C330027C09Rik value_2", "setting": "mRNA-Seq, sample Day_6_JQ1", "value": 10.1673}, {"measurement": "Cadm4 value_2", "setting": "mRNA-Seq, sample Day_6_JQ1", "value": 23.19}, {"measurement": "Cbx5 value_2", "setting": "mRNA-Seq, sample Day_6_JQ1", "value": 28.9059}]}
